In US20090104145A1, “Mixtures of Anthranilamide Invertebrate Pest Control Agents” (priority 2004, published 2009):
Read-outs that look alike come from different tables or passages of the source.

What was measured:
Experiment in all cases: whole plant or invertebrate
Format in all cases: in vivo
[1] = tested on: potato leafhopper (Empoasca fabae Harris); conditions: Empoasca fabae, Imidacloprid 0 ppm, read-out: % Mortality (observed)
Description: (§1) The pest control protection afforded by the mixtures or compositions is not limited, however, to these species. The analysis of synergism or antagonism between the mixtures or compositions was determined using Colby's equation. The average % mortality data for the test compounds alone were inserted into the Colby's equation. If the observed average % mortality was higher than “p”, the expected % mortality, the mixture or composition had synergistic effects. If the observed average % mortality was equal to or lower than the expected mortality, the mixture or composition either had no synergistic effect or an antagonistic effect. In these tests, Compound 1 is the compound of Formula 1.
(§2) Test compounds were formulated using a solution containing 10% acetone, 90% water and 300 ppm X-77® Spreader Lo-Foam Formula non-ionic surfactant containing alkylarylpolyoxyethylene, free fatty acids, glycols and isopropanol (Loveland Industries, Inc.) to provide the desired concentration in ppm. Formulated test solutions were then applied in 1 mL volumes through a SUJ2 atomizer nozzle with ⅛ JJ custom body (Spraying Systems Co.) positioned 1.27 cm (0.5 inches) above the top of each test unit.
For evaluating control of potato leafhopper (Empoasca fabae Harris) through contact and/or systemic means, each test unit consisted of a small open container with a 5- to 6-day-old Longio bean plant (primary leaves emerged) inside. White sand was added to the top of the soil, and one of the primary leaves was excised prior to application. Test compounds were formulated and sprayed with 3 replications as described for Test A. After spraying, the test units were allowed to dry for 1 hour before they were infested with 5 potato leafhoppers (18- to 21-day-old adults). A black, screened cap was placed on the top of each container. The test units were held for 6 days in a growth chamber at 19-21° C. and 50-70% relative humidity.

[2] = tested on: western flower thrip (Frankliniella occidentalis Pergande); conditions: Frankliniella occidentalis
Description: as §1, §2
For evaluating control of the western flower thrip (Frankliniella occidentalis Pergande) through contact and/or systemic means, each test unit consisted of a small open container with a 5- to 7-day-old bean (var. Soleil) plant inside.
Test solutions were formulated and sprayed with 3 replications as described for Test A. After spraying, the test units were allowed to dry for 1 hour, 22 to 27 adult thrips were added to each unit and then a black, screened cap was placed on top. The test units were held for 7 days at 25° C. and 45-55% relative humidity.

[3] = tested on: green peach aphid (Myzus persicae Sulzer); conditions: Myzus persicae, in Raphanus sativus
Description: as §1, §2
(§3) For evaluating control of green peach aphid (Myzus persicae Sulzer) through contact and/or systemic means, each test unit consisted of a small open container with a 12- to 15-day-old radish plant inside. This was pre-infested by placing on a leaf of the test plant 30 to 40 aphids on a piece of leaf excised from a culture plant (cut-leaf method). The larvae moved onto the test plant as the leaf piece desiccated. After pre-infestation, the soil of the test unit was covered with a layer of sand.
(§4) Test compounds were formulated and sprayed as described in Test A, replicated three times. After spraying of the formulated test compound, each test unit was allowed to dry for 1 hour and then a black, screened cap was placed on top. The test units were held for 6 days in a growth chamber at 19-21° C. and 50-70% relative humidity.

[4] = tested on: cotton melon aphid (Aphis gossypii Glover); conditions: Aphis gossypii
Description: as §1, §2
as §3, with “cotton melon” for “green peach”, “(Aphis gossypii Glover)” for “(Myzus persicae Sulzer)”, “6-” for “12-”, “7-day-old cotton” for “15-day-old radish”
as §4, with “described for” for “described in”, “Test A. The applications were” for “Test A,”, “test compounds,” for “test compound,”

[5] = tested on: corn planthopper (Pereginus maidis); conditions: read-out: % mortality (obs)
Description: as §1, §2
For evaluating control of corn planthopper (Pereginus maidis) through contact and/or systemic means, each test unit consisted of a small open cylindrical container with a 3- to 4-day-old corn (maize) plant (spike) inside. White sand was added to the top of the soil prior to application. Test compounds were formulated and sprayed with 3 replications as described for Test A. After spraying, the test units were allowed to dry for 1 hour before they were post-infested with 10 to 20 corn planthoppers (18- to 20-day-old nymphs) by sprinkling them onto the sand with a salt shaker. A black, screened cap was placed on the top of each container. The test units were held for 6 days in a growth chamber at 19-21° C. and 50-70% relative humidity.

[6] = tested on: silverleaf whitefly (Bemisia argentifolii Bellows and Perring); conditions: Bemisia argentifolii, in Gossypium hirsutum, read-out: % Mortality (observed)
Description: as §1
For evaluating control of silverleaf whitefly (Bemisia argentifolii Bellows and Perring) through contact and/or systemic means, each test unit consisted of a small open container with a 12- to 14-day-old cotton plant inside. This was pre-infested by placing test units into cages infested with adult whiteflies so that oviposition on the cotton leaves could occur. The adults were removed from the plants with an air-blast nozzle, and the test units were capped. The test units were then stored 2 to 3 days before spraying.
as §2
The results for all experimental compositions in this test were replicated three times. After spraying of the formulated test composition, each test unit was allowed to dry for 1 hour and the cap removed. The test units were held for 13 days in a growth chamber at 28° C. and 50-70% relative humidity.

[7] = rate 0.5 ppm, read-out: % mortality (obs)
[8] = rate 2 ppm, read-out: % mortality (obs)

For `CNC(=O)c1cc(C#N)cc(C)c1NC(=O)c1cc(Br)nn1-c1ncccc1Cl` [Compound 1, 3-bromo-N-[4-cyano-2-methyl-6-[(methylamino)carbonyl]phenyl]-1-(3-chloro-2-pyridinyl)-1H-pyrazole-5-carboxamide], the mortality at 0.3 ppm ([1]; Compound 1 0.3 ppm) was 0%, the mortality at 2.3 ppm ([1]; Compound 1 2.3 ppm) was 0% and the mortality at 18 ppm ([1]; Compound 1 18 ppm) was 100%. For the same compound, the mortality at 0.3 ppm ([2]; Compound 1 0.3 ppm alone, read-out: % Mortality (observed)) was 25%, the mortality at […] ([2]; Compound 1 1.3 ppm alone, read-out: % Mortality (observed)) was 55% and the mortality at 6 ppm ([2]; Compound 1 6 ppm alone, read-out: % Mortality (observed)) was 72%. For the same compound, the mortality at 0.3 ppm ([2]; rate 0.3 ppm, read-out: % mortality (obs)) was 42%, the mortality at […] ([2]; rate 1.5 ppm, read-out: % mortality (obs)) was 50% and the mortality at 6 ppm ([2]; rate 6 ppm, read-out: % mortality (obs)) was 61%. It also gave a mortality at 0.5 ppm ([3]; 0.5 ppm, read-out: % Mortality (observed)) of 14%, a mortality at 1.1 ppm ([3]; 1.1 ppm, read-out: % Mortality (observed)) of 22% and a mortality at 2.1 ppm ([3]; 2.1 ppm, read-out: % Mortality (observed)) of 49%. The mortality at 0.5 ppm [3, 7] was 21%, the mortality at 1 ppm ([3]; rate 1 ppm, read-out: % mortality (obs)) was 35% and the mortality at 2 ppm [3, 8] was 71%. The mortality at 0.08 ppm ([4]; Compound 1 0.08 ppm, read-out: % Mortality (observed)) was 15%, the mortality at 0.4 ppm ([4]; Compound 1 0.4 ppm, read-out: % Mortality (observed)) was 18% and the mortality at 1.8 ppm ([4]; Compound 1 1.8 ppm, read-out: % Mortality (observed)) was 66%. It also gave a mortality at 0.1 ppm ([4]; rate 0.1 ppm, read-out: % mortality (obs)) of 22%, a mortality at 0.5 ppm [4, 7] of 37% and a mortality at 2 ppm [4, 8] of 76%. It also gave a mortality at 0.3 ppm ([5]; rate 0.3 ppm) of 15%, a mortality at 3 ppm ([5]; rate 3 ppm) of 26% and a mortality at 30 ppm ([5]; rate 30 ppm) of 90%. It also gave a mortality at 7 ppm ([6]; Compound 1 7 ppm alone) of 58%, a mortality at 9 ppm ([6]; Compound 1 9 ppm alone) of 69% and a mortality at 12 ppm ([6]; Compound 1 12 ppm alone) of 72%.
